This is an account of results in US20210309658A1, “ARYL COMPOUNDS FOR THE TREATMENT AND PROPHYLAXIS OF BACTERIAL INFECTION” (Hoffmann-La Roche Inc., priority 2018, published 2021).

Format in all cases: cell-based
In one assay the test system is E. coli (ATCC 25922). Kind of assay: Minimal Inhibitory Concentration (MIC) assay. The conditions noted are these: Escherichia coli, ATCC25922; CAMHB, 20 hours at 35° C.; read-out: MIC (μg/mL) E. coli ATCC 25922. How it is done: The in vitro potency of compounds to inhibit E. coli (ATCC 25922) growth was assessed by MIC (Minimal Inhibitory Concentration) assay. Samples were prepared from 10 mM DMSO stock solutions. After serial 2-fold dilution in DMSO in a master plate (Greiner, Cat No: 651201), 180 μL sterile distilled water was added to 20 μL each aliquot of the samples. Then 10 μL diluted compounds were transferred into a new assay plate (Costar, 3599).
The growth medium […] Mueller Hinton Broth (CAMHB) was prepared by adding the 20 mg per liter CaCl2 and 20 mg per liter MgCl2 into the MHB medium (Jianglai Company, sterilized).
Vials of each of the test microorganisms were maintained frozen in the vapor phase of a liquid nitrogen freezer. Took out the bacteria E. coli ATCC 25922 (KWIKSTIK, 0335K) from liquid nitrogen freezer, thawed it in room temperature, and diluted the bacterial in the CAMHB medium to achieve a final inoculum of 5×10^5 CFU/mL, 90 μL CAMHB with bacteria was dispensed to the assay plate and pipetted 5 times.
Then the assay plates were incubated for 20 hours at 35° C. in ambient air. Following incubation, the MIC (μg/mL), the lowest concentration of drug that inhibits visible growth of the microorganism was read and recorded throw the microscope.

A further assay has as its system E. coli (BW25113). Kind of assay: 50% growth inhibitory concentration (IC50) determination assay, E. coli. The conditions noted are these: Escherichia coli, read-out: IC50 (μM) E. coli K12 BW25113. How it is done:
(§1) The in vitro antimicrobial activity of the compounds against E. coli (BW25113, obtained from Coli Genetic Stock Center, #7636) and K. pneumoniae (ATCC10031) was determined according to the following procedure:
(§2) The assay used a 10-points Iso-Sensitest broth medium to measure quantitatively the in vitro activity of the compounds against E. coli BW25113 and K. pneumoniae ATCC 10031.
(§3) Stock compounds in DMSO were serially two-fold diluted (range from 50 to 0.097 μM final concentration) in 384 wells microtiter plates and inoculated with 49 μL the bacterial suspension in Iso-Sensitest broth medium to have a final cell concentration of ˜5×10^5 CFU/mL in a final volume/well of 50 μL/well. Microtiter plates were incubated at 35±2° C.
(§4) Bacterial cell growth was determined with the measurement of optical density at λ=600 nm each 20 minutes over a time course of 16 h.
(§5) Growth inhibition was calculated during the logarithmic growth of the bacterial cells with determination of the concentration inhibiting 50% (IC50) of the growth.

In assay [1] the test system is K. pneumoniae (ATCC10031). Kind of assay: 50% growth inhibitory concentration (IC50) determination assay, K. pneumoniae. Conditions: Klebsiella pneumoniae, read-out: IC50 (μM) K. pneumoniae ATCC10031. How it is done: as §1, §2, §3, §4, §5
The mark [2] stands for this setting: BW25113, growth inhibition, Iso-Sensitest broth, OD 600 nm over 16 h.
Where [3] appears, read: ATCC10031, growth inhibition, Iso-Sensitest broth, OD 600 nm over 16 h, * = detection limit.

In brackets after ≈: the same amount, converted by molar mass. Like-named read-outs stand apart in the source and are kept apart here.

Broadly, the IC50 is the midpoint of a concentration-inhibition curve. As to `CCNc1cc(F)cc2c1[nH]c1ncc(-c3cncc(C#N)c3)c(-n3cc(C(F)(F)F)cn3)c12` [Example 1.03, 5-[8-(Ethylamino)-6-fluoro-4-[4-(trifluoromethyl)pyrazol-1-yl]-9H-pyrido[2,3-b]indol-3-yl]pyridine-3-carbonitrile], in the assay on E. coli (ATCC 25922), the MIC came out at 0.679 µg/mL (≈ 1.46 µM). Further, the results for the IC50 (in the assay with E. coli (BW25113) (setting [2]); in assay [1] (setting [3])) were 1.61 µM and 0.206 µM, respectively.

`CCNc1cc(F)cc2c1[nH]c1ncc(-c3cnc(OC)nc3)c(-n3ccc(C(F)(F)F)n3)c12` [Example 1.04, N-Ethyl-6-fluoro-3-(2-methoxypyrimidin-5-yl)-4-[3-(trifluoromethyl)pyrazol-1-yl]-9H-pyrido[2,3-b]indol-8-amine]: the MIC in the assay on E. coli (ATCC 25922) was determined as 0.552 µg/mL (≈ 1.17 µM). In addition, the IC50 with E. coli (BW25113) (setting [2]) came to 1.56 µM; in assay [1] (setting [3]) it was 0.13 µM.

As to `CCNc1cc(F)cc2c1[nH]c1ncc(-c3cncc(C#N)c3)c(-n3ccc(C#N)n3)c12` [Example 1.05, 5-[4-(3-Cyanopyrazol-1-yl)-8-(ethylamino)-6-fluoro-9H-pyrido[2,3-b]indol-3-yl]pyridine-3-carbonitrile], in the assay with E. coli (ATCC 25922), the MIC came to 0.314 µg/mL (≈ 0.743 µM). The IC50 is 0.701 µM in the assay with E. coli (BW25113) (setting [2]) and ≤ 0.098 µM in assay [1] (setting [3]).

`CCNc1cc(F)cc2c1[nH]c1ncc(-c3cnc(N)nc3)c(-n3ccc(C(F)(F)F)n3)c12` [Example 1.06, 3-(2-Aminopyrimidin-5-yl)-N-ethyl-6-fluoro-4-[3-(trifluoromethyl)pyrazol-1-yl]-9H-pyrido[2,3-b]indol-8-amine]: the MIC in the assay on E. coli (ATCC 25922) turned out to be 0.267 µg/mL (≈ 0.585 µM). Moreover, the IC50 in the assay with E. coli (BW25113) (setting [2]) was 0.495 µM; in assay [1] (setting [3]) it was ≤ 0.098 µM.

Take `CCNc1cc(F)cc2c1[nH]c1ncc(-c3cnc4cccnc4c3)c(-n3ccc(C(F)(F)F)n3)c12` [Example 1.11, N-Ethyl-6-fluoro-3-(1,5-naphthyridin-3-yl)-4-[3-(trifluoromethyl)pyrazol-1-yl]-9H-pyrido[2,3-b]indol-8-amine]: in the assay on E. coli (ATCC 25922), the MIC came to 0.288 µg/mL (≈ 0.586 µM). In addition, the IC50 in the assay on E. coli (BW25113) (setting [2]) was 0.803 µM; in assay [1] (setting [3]) it was 0.208 µM.

As for `CCNc1cc(F)cc2c1[nH]c1ncc(-c3cncnc3)c(-n3ccc(C(F)(F)F)n3)c12` [Example 1.12, N-Ethyl-6-fluoro-3-pyrimidin-5-yl-4-[3-(trifluoromethyl)pyrazol-1-yl]-9H-pyrido[2,3-b]indol-8-amine], the MIC in the assay on E. coli (ATCC 25922) amounted to 0.259 µg/mL (≈ 0.587 µM). Moreover, the 50% inhibitory concentration (IC50) with E. coli (BW25113) (setting [2]) was 0.536 µM; in assay [1] (setting [3]), ≤ 0.098 µM.

As for `CCNc1cc(F)cc2c1[nH]c1ncc(-c3cncc(C(N)=O)c3)c(-n3ccc(C(F)(F)F)n3)c12` [Example 1.15, 5-[8-(Ethylamino)-6-fluoro-4-[3-(trifluoromethyl)pyrazol-1-yl]-9H-pyrido[2,3-b]indol-3-yl]pyridine-3-carboxamide], the MIC with E. coli (ATCC 25922) came to 0.142 µg/mL (≈ 0.294 µM). In addition, the IC50 in the assay with E. coli (BW25113) (setting [2]) was 0.289 µM; in assay [1] (setting [3]), ≤ 0.098 µM.

Take `CCNc1cc(F)cc2c1[nH]c1ncc(-c3cnc4ccnn4c3)c(-n3ccc(C(F)(F)F)n3)c12` [Example 1.19, N-Ethyl-6-fluoro-3-pyrazolo[1,5-a]pyrimidin-6-yl-4-[3-(trifluoromethyl)pyrazol-1-yl]-9H-pyrido[2,3-b]indol-8-amine]: the MIC in the assay with E. coli (ATCC 25922) was found to be 0.281 µg/mL (≈ 0.585 µM). For the same compound, the concentration for half-maximal inhibition (IC50) was 0.739 µM with E. coli (BW25113) (setting [2]) and 0.196 µM in assay [1] (setting [3]).

As to `CCNc1cc(F)cc2c1[nH]c1ncc(-c3cnc(NC4CCOC4)nc3)c(-n3ccc(C(F)(F)F)n3)c12` (stereo not drawn) [Example 1.25, N-Ethyl-6-fluoro-3-[2-(tetrahydrofuran-3-ylamino)pyrimidin-5-yl]-4-[3-(trifluoromethyl)pyrazol-1-yl]-9H-pyrido[2,3-b]indol-8-amine], the MIC with E. coli (ATCC 25922) was 0.751 µg/mL (≈ 1.43 µM).

For `CCNc1cc(F)cc2c1[nH]c1ncc(-c3cnc(OC)nc3)c(-n3cc(CN)c(C(F)(F)F)n3)c12` [Example 1.27, 4-[4-(Aminomethyl)-3-(trifluoromethyl)pyrazol-1-yl]-N-ethyl-6-fluoro-3-(2-methoxypyrimidin-5-yl)-9H-pyrido[2,3-b]indol-8-amine], in the assay with E. coli (ATCC 25922), the MIC amounted to 0.417 µg/mL (≈ 0.833 µM). The half-maximal inhibitory concentration (IC50) with E. coli (BW25113) (setting [2]) was 0.462 µM; in assay [1] (setting [3]) it was ≤ 0.098 µM.

For the compound `CCNc1cc(F)c(F)c2c1[nH]c1ncc(-c3cncc(C#N)c3)c(-n3ccc(C(F)(F)F)n3)c12` [Example 1.28, 5-[8-(Ethylamino)-5,6-difluoro-4-[3-(trifluoromethyl)pyrazol-1-yl]-9H-pyrido[2,3-b]indol-3-yl]pyridine-3-carbonitrile], the MIC in the assay on E. coli (ATCC 25922) was found to be 0.7 µg/mL (≈ 1.45 µM). Besides, the results for the half-inhibitory concentration (IC50) (with E. coli (BW25113) (setting [2]); in assay [1] (setting [3])) were 0.8 µM and 0.199 µM, respectively.

On to `CCNc1cc(F)c(F)c2c1[nH]c1ncc(-c3cnc(OC)nc3)c(-n3ccc(C(F)(F)F)n3)c12` [Example 1.29, N-Ethyl-5,6-difluoro-3-(2-methoxypyrimidin-5-yl)-4-[3-(trifluoromethyl)pyrazol-1-yl]-9H-pyrido[2,3-b]indol-8-amine], for which the MIC in the assay on E. coli (ATCC 25922) worked out at 0.354 µg/mL (≈ 0.723 µM). The half-inhibitory concentration (IC50) in the assay with E. coli (BW25113) (setting [2]) amounted to 1.05 µM; in assay [1] (setting [3]), 0.175 µM.

In the case of `CCNc1cc(F)cc2c1[nH]c1ncc(-c3cnc(C)nc3)c(-n3ccc(C(F)(F)F)n3)c12` [Example 1.50], in the assay with E. coli (ATCC 25922), the MIC amounted to 0.534 µg/mL (≈ 1.17 µM). Moreover, the IC50 with E. coli (BW25113) (setting [2]) is 0.422 µM; in assay [1] (setting [3]) it was 0.098 µM.

`CCNc1cc(F)cc2c1[nH]c1ncc(-c3cnc(O[C@H]4CCNC4)nc3)c(-n3ccc(C(F)(F)F)n3)c12` [Example 1.56, N-ethyl-6-fluoro-3-[2-[(3S)-pyrrolidin-3-yl]oxypyrimidin-5-yl]-4-[3-(trifluoromethyl)pyrazol-1-yl]-9H-pyrido[2,3-b]indol-8-amine]: the IC50 is 1 µM with E. coli (BW25113) (BW25113, 16 h) and ≤ 0.098 µM in assay [1] (ATCC10031, 16 h).

In the case of `CCNc1cc(F)cc2c1[nH]c1ncc(-c3cncc(Cc4nnc(C)o4)c3)c(-n3ccc(C(F)(F)F)n3)c12` [Example 1.58, N-ethyl-6-fluoro-3-[5-[(5-methyl-1,3,4-oxadiazol-2-yl)methyl]-3-pyridyl]-4-[3-(trifluoromethyl)pyrazol-1-yl]-9H-pyrido[2,3-b]indol-8-amine], the values for the IC50 (in the assay with E. coli (BW25113) (setting [2]); in assay [1] (setting [3])) were 1.52 µM and ≤ 0.098 µM, respectively.

Regarding `CCNc1cc(F)cc2c1[nH]c1ncc(-c3cnc4c(C#N)cnn4c3)c(-n3ccc(C(F)(F)F)n3)c12` [Example 1.59, 6-[8-(ethylamino)-6-fluoro-4-[3-(trifluoromethyl)pyrazol-1-yl]-9H-pyrido[2,3-b]indol-3-yl]pyrazolo[1,5-a]pyrimidine-3-carbonitrile], the IC50 in the assay with E. coli (BW25113) (setting [2]) is 1.87 µM; in assay [1] (setting [3]), 0.368 µM.

On to `CCNc1cc(F)cc2c1[nH]c1ncc(-c3cncc(C(=O)NC4(COC)CC4)c3)c(-n3ccc(C(F)(F)F)n3)c12` [Example 3.07, 5-[8-(ethylamino)-6-fluoro-4-[3-(trifluoromethyl)pyrazol-1-yl]-9H-pyrido[2,3-b]indol-3-yl]-N-[1-(methoxymethyl)cyclopropyl]pyridine-3-carboxamide], for which, in the assay on E. coli (ATCC 25922), the MIC is 0.767 µg/mL (≈ 1.35 µM).

For `CCNc1cc(F)cc2c1[nH]c1ncc(-c3cncc(C#N)c3)c(-n3cc(C(N)=O)c(C(F)(F)F)n3)c12` [Example 4.01, 1-(3-(5-Cyanopyridin-3-yl)-8-(ethylamino)-6-fluoro-9H-pyrido[2,3-b]indol-4-yl)-3-(trifluoromethyl)-1H-pyrazole-4-carboxamide], the figures for the half-maximal inhibitory concentration (IC50) (with E. coli (BW25113) (setting [2]); in assay [1] (setting [3])) were 1.74 µM and ≤ 0.098 µM, respectively.

Regarding `CCNc1cc(F)cc2c1[nH]c1ncc(-c3cncc(C#N)c3)c(-n3cc(CO)c(C(F)(F)F)n3)c12` [Example 5.01, 5-[8-(ethylamino)-6-fluoro-4-[4-(hydroxymethyl)-3-(trifluoromethyl)pyrazol-1-yl]-9H-pyrido[2,3-b]indol-3-yl]pyridine-3-carbonitrile], the IC50 in the assay with E. coli (BW25113) (setting [2]) is 0.971 µM; in assay [1] (setting [3]), ≤ 0.098 µM.
